Where “and” joins values, the source holds several entries; their conditions need not be identical. Equal entries are not always repeated. Where two headings read alike, the source gives them in different places.
How the values were obtained:
[1] = Tissue concentrations (plasma, brain, liver) after single oral dose 25 mg/kg in mice; type: in vivo
Method: In a first experiment, a total of 3-4 male C57BL6/J mice were administered a single dose of TQS-168 by oral gavage at 25 mg/kg. TQS-168 was prepared for oral gavage as a suspension with 0.5% methylcellulose in PBS.
Tissues were collected at various time points after dosing and processed for LC-MS analyses of TQS-168 concentrations. The tissues analyzed include plasma, brain, and liver. Animals were perfused thoroughly with 20 mL ice cold PBS before brain and liver collection to remove contaminating blood. Data are shown in Table 1 (TQS-168 concentrations in ng/mL).

[2] = background statement; cited from earlier work
older mice = details: oral 25 mg/kg; cited from earlier work
[3] = 25 mg/kg p.o., 0.0 minutes, individual animal, 25 mg/kg
[4] = 25 mg/kg p.o., 15.0 minutes, individual animal, 25 mg/kg
[5] = 25 mg/kg p.o., 60.0 minutes, individual animal, 25 mg/kg
[6] = 25 mg/kg p.o., 120.0 minutes, individual animal, 25 mg/kg
[7] = 25 mg/kg p.o., 240.0 minutes, individual animal, 25 mg/kg
[8] = 25 mg/kg p.o., 480.0 minutes, individual animal, 25 mg/kg
[9] = 25 mg/kg p.o., 1440.0 minutes, individual animal, 25 mg/kg
[10] = 25 mg/kg p.o., 2880.0 minutes, individual animal, 25 mg/kg

CC(C)(C)c1ccc(-c2nc3ccccc3[nH]2)cc1 [TQS-168, 2-(4-tert-butylphenyl)-1H-benzimidazole]
concentration in brain [1, 3]: 4.2 ng/mL and 10.7 ng/mL and 22.8 ng/mL | concentration in liver [1, 3]: 2.4 ng/mL and 0.4 ng/mL and 0.7 ng/mL | concentration in plasma [1, 3]: 0.5 ng/mL and 0.1 ng/mL and 0.0 ng/mL | concentration in brain [1, 4]: 21.6 ng/mL and 42.0 ng/mL and 35.2 ng/mL | concentration in liver [1, 4]: 268.0 ng/mL and 496.0 ng/mL and 575.0 ng/mL and 431.5 ng/mL | concentration in plasma [1, 4]: 12.6 ng/mL and 18.6 ng/mL and 14.6 ng/mL | concentration in brain [1, 5]: 253.0 ng/mL and 755.0 ng/mL and 530.0 ng/mL and 630.0 ng/mL | concentration in liver [1, 5]: 1060.0 ng/mL and 2725.0 ng/mL and 1940.0 ng/mL and 2175.0 ng/mL | concentration in plasma [1, 5]: 107.0 ng/mL and 47.0 ng/mL and 57.4 ng/mL and 86.0 ng/mL | concentration in brain [1, 6]: 282.0 ng/mL and 150.5 ng/mL and 242.5 ng/mL | concentration in liver [1, 6]: 305.5 ng/mL and 2080.0 ng/mL and 1070.0 ng/mL and 1725.0 ng/mL | concentration in plasma [1, 6]: 110.0 ng/mL and 43.8 ng/mL and 88.6 ng/mL and 131.0 ng/mL | concentration in brain [1, 7]: 399.0 ng/mL and 143.0 ng/mL and 188.0 ng/mL and 10.6 ng/mL | concentration in liver [1, 7]: 60.5 ng/mL and 1520.0 ng/mL and 216.5 ng/mL and 680.0 ng/mL | concentration in plasma [1, 7]: 46.8 ng/mL and 175.0 ng/mL and 3.4 ng/mL and 14.0 ng/mL | concentration in brain [1, 8]: 34.8 ng/mL and 20.9 ng/mL and 5.3 ng/mL and 18.2 ng/mL | concentration in liver [1, 8]: 431.5 ng/mL and 50.5 ng/mL and 37.6 ng/mL and 147.5 ng/mL | concentration in plasma [1, 8]: 6.0 ng/mL and 2.7 ng/mL and 1.8 ng/mL and 10.9 ng/mL | concentration in plasma ([1]; 25 mg/kg p.o., 1440.0 minutes, individual animal): 0.0 ng/mL | concentration in brain [1, 9]: 36.3 ng/mL and 8.5 ng/mL and 10.5 ng/mL and 55.5 ng/mL | concentration in liver [1, 9]: 4.0 ng/mL and 2.6 ng/mL and 0.8 ng/mL and 8.7 ng/mL | concentration in plasma ([1]; 25 mg/kg p.o., 2880.0 minutes, individual animal): 0.0 ng/mL | concentration in brain [1, 10]: 0.0 ng/mL and 3.0 ng/mL and 2.5 ng/mL and 0.7 ng/mL | concentration in liver [1, 10]: 0.0 ng/mL (3×) and 1.0 ng/mL | concentration at 0 min ([1]; male, C57BL6/J, mouse, brain, po, 25 mg/kg, 25 mg/kg p.o., 0.0 minutes, average, read-out: concentration in brain): 12.6 ng/mL | concentration at 15 min ([1]; male, C57BL6/J, mouse, brain, po, 25 mg/kg, 25 mg/kg p.o., 15.0 minutes, average, read-out: concentration in brain): 34.7 ng/mL | concentration at 15 minutes ([1]; male, C57BL6/J, mouse, brain, po, 25 mg/kg, 25 mg/kg p.o., 15.0 minutes, individual animal): 40.2 ng/mL | concentration at 60 min ([1]; male, C57BL6/J, mouse, brain, po, 25 mg/kg, 25 mg/kg p.o., 60.0 minutes, average, read-out: concentration in brain): 542 ng/mL | concentration at 120 min ([1]; male, C57BL6/J, mouse, brain, po, 25 mg/kg, 25 mg/kg p.o., 120.0 minutes, average, read-out: concentration in brain): 236 ng/mL | concentration at 120 minutes ([1]; male, C57BL6/J, mouse, brain, po, 25 mg/kg, 25 mg/kg p.o., 120.0 minutes, individual animal): 270 ng/mL | concentration at 240 min ([1]; male, C57BL6/J, mouse, brain, po, 25 mg/kg, 25 mg/kg p.o., 240.0 minutes, average, read-out: concentration in brain): 185 ng/mL | concentration at 480 min ([1]; male, C57BL6/J, mouse, brain, po, 25 mg/kg, 25 mg/kg p.o., 480.0 minutes, average, read-out: concentration in brain): 19.8 ng/mL | concentration at 1440 min ([1]; male, C57BL6/J, mouse, brain, po, 25 mg/kg, 25 mg/kg p.o., 1440.0 minutes, average, read-out: concentration in brain): 27.7 ng/mL | concentration at 2880 min ([1]; male, C57BL6/J, mouse, brain, po, 25 mg/kg, 25 mg/kg p.o., 2880.0 minutes, average, read-out: concentration in brain): 1.5 ng/mL | concentration at 0 min ([1]; male, C57BL6/J, mouse, liver, po, 25 mg/kg, 25 mg/kg p.o., 0.0 minutes, average, read-out: concentration in liver): 1.2 ng/mL | concentration at 15 min ([1]; male, C57BL6/J, mouse, liver, po, 25 mg/kg, 25 mg/kg p.o., 15.0 minutes, average, read-out: concentration in liver): 443 ng/mL | concentration at 60 min ([1]; male, C57BL6/J, mouse, liver, po, 25 mg/kg, 25 mg/kg p.o., 60.0 minutes, average, read-out: concentration in liver): 1980 ng/mL | concentration at 120 min ([1]; male, C57BL6/J, mouse, liver, po, 25 mg/kg, 25 mg/kg p.o., 120.0 minutes, average, read-out: concentration in liver): 1300 ng/mL | concentration at 240 min ([1]; male, C57BL6/J, mouse, liver, po, 25 mg/kg, 25 mg/kg p.o., 240.0 minutes, average, read-out: concentration in liver): 619 ng/mL | concentration at 480 min ([1]; male, C57BL6/J, mouse, liver, po, 25 mg/kg, 25 mg/kg p.o., 480.0 minutes, average, read-out: concentration in liver): 167 ng/mL | concentration at 1440 min ([1]; male, C57BL6/J, mouse, liver, po, 25 mg/kg, 25 mg/kg p.o., 1440.0 minutes, average, read-out: concentration in liver): 4 ng/mL | concentration at 2880 min ([1]; male, C57BL6/J, mouse, liver, po, 25 mg/kg, 25 mg/kg p.o., 2880.0 minutes, average, read-out: concentration in liver): 0.3 ng/mL | Cmax ([1]; male, C57BL6/J, mouse, plasma, 25 mg/kg single oral dose): 93.4 ng/mL and 370 nM | concentration at 0 min ([1]; male, C57BL6/J, mouse, plasma, po, 25 mg/kg, 25 mg/kg p.o., 0.0 minutes, average, read-out: concentration in plasma): 0.2 ng/mL | concentration at 15 min ([1]; male, C57BL6/J, mouse, plasma, po, 25 mg/kg, 25 mg/kg p.o., 15.0 minutes, average, read-out: concentration in plasma): 16.2 ng/mL | concentration at 15 min ([1]; male, C57BL6/J, mouse, plasma, po, 25 mg/kg, 25 mg/kg p.o., 15.0 minutes, individual animal, read-out: concentration in plasma): 18.8 ng/mL | concentration at 60 min ([1]; male, C57BL6/J, mouse, plasma, po, 25 mg/kg, 25 mg/kg p.o., 60.0 minutes, average, read-out: concentration in plasma): 74.4 ng/mL | concentration at 120 min ([1]; male, C57BL6/J, mouse, plasma, po, 25 mg/kg, 25 mg/kg p.o., 120.0 minutes, average, read-out: concentration in plasma): 93.4 ng/mL | concentration at 240 min ([1]; male, C57BL6/J, mouse, plasma, po, 25 mg/kg, 25 mg/kg p.o., 240.0 minutes, average, read-out: concentration in plasma): 59.8 ng/mL | concentration at 480 min ([1]; male, C57BL6/J, mouse, plasma, po, 25 mg/kg, 25 mg/kg p.o., 480.0 minutes, average, read-out: concentration in plasma): 5.3 ng/mL | concentration at 1440 min ([1]; male, C57BL6/J, mouse, plasma, po, 25 mg/kg, 25 mg/kg p.o., 1440.0 minutes, average, read-out: concentration in plasma): 0 ng/mL | concentration at 1440 min ([1]; male, C57BL6/J, mouse, plasma, po, 25 mg/kg, 25 mg/kg p.o., 1440.0 minutes, individual animal, read-out: concentration in plasma): 0 ng/mL | concentration at 2880 min ([1]; male, C57BL6/J, mouse, plasma, po, 25 mg/kg, 25 mg/kg p.o., 2880.0 minutes, average, read-out: concentration in plasma): 0 ng/mL | concentration at 2880 min ([1]; male, C57BL6/J, mouse, plasma, po, 25 mg/kg, 25 mg/kg p.o., 2880.0 minutes, individual animal, read-out: concentration in plasma): 0 ng/mL | solubility [2]: highly insoluble | behavioral dysfunction (older mice): alleviate behavioral dysfunction | inflammatory cytokine production in microglia (older mice): inhibit inflammatory cytokine production in microglia | metabolic dysfunction in microglia (older mice): suppress metabolic dysfunction in microglia | systemic inflammation (older mice): suppress systemic inflammation
